Measured values: patent US12234239B2, “Crystalline forms of 2-(3-(4-(7H-pyrrolo[2,3-d]pyrimidin-4-yl)-1H-pyrazol-1-yl)-1-(cyclopropylsulfonyl)azetidin-3-yl)acetonitrile” (Elanco US, Inc., priority 2019, dated 2025)

Test system: pruritus and skin lesions associated with allergic dermatitis in dogs
Test: Control of pruritus and skin lesions associated with allergic dermatitis in dogs (four-arm, blinded, randomized, placebo-controlled study)
Format: in vivo
Conditions: for Treatment success LSMean (response rate): oral tablets (Form II) once daily, success = 2 unit or more reduction from baseline on 10-unit owner-assessed pruritus VAS in at least 5 of first 7 treatment days, generalized linear mixed model
Procedure: Control of Pruritus and Skin Lesions Associated with Allergic Dermatitis in Dogs
This study evaluated 2-(3-(4-(7H-pyrrolo[2,3-d]pyrimidin-4-yl)-1H-pyrazol-1-yl)-1-(cyclopropylsulfonyl)azetidin-3-yl)acetonitrile for control of pruritus and skin lesions associated with allergic dermatitis in dogs.
Oral tablets were prepared containing Form II 2-(3-(4-(7H-pyrrolo[2,3-d]pyrimidin-4-yl)-1H-pyrazol-1-yl)-1-(cyclopropylsulfonyl)azetidin-3-yl)acetonitrile, as follows. Oral tablet blends were prepared containing crystal Form II 2-(3-(4-(7H-pyrrolo[2,3-d]pyrimidin-4-yl)-1H-pyrazol-1-yl)-1-(cyclopropylsulfonyl)azetidin-3-yl)acetonitrile, microcrystalline cellulose, pregelantinized starch, dicalcium phosphate dehydrate, oxide pigment, and magnesium stearate. The tablet blends were pressed giving tablet cores containing 2.4 mg, 3.6 mg, 5.4 mg, and 16 mg of crystal Form II 2-(3-(4-(7H-pyrrolo[2,3-d]pyrimidin-4-yl)-1H-pyrazol-1-yl)-1-(cyclopropylsulfonyl)azetidin-3-yl)acetonitrile, as well as a placebo core. The tablet cores were coated with a mixture containing water and Opadry 20A150011 Red, thereby giving the final oral tablets for the study.
A four-arm, blinded, randomized, placebo-controlled study was conducted to assess the efficacy of daily administration of 2-(3-(4-(7H-pyrrolo[2,3-d]pyrimidin-4-yl)-1H-pyrazol-1-yl)-1-(cyclopropylsulfonyl)azetidin-3-yl)acetonitrile for control of pruritus and skin lesions associated with allergic dermatitis in dogs. Subjects were randomized to one of the following treatment arms: API-containing Tablets, 0.25-0.40 mg/kg Body Weight; API-containing Tablets, 0.40-0.60 mg/kg Body Weight; API-containing Tablets, 0.60-0.80 mg/kg Body Weight; and Placebo Tablets, 0.0 mg/kg Body Weight.
Dogs enrolled in the study received once daily treatment for approximately 28 days. Baseline data (clinical history, concomitant therapies, body weight, physical examinations and assessments of pruritus and atopic dermatitis) were collected for each dog at enrollment (Day 0). Additional health assessments, physical examinations, body weight measurements, assessments of pruritus and atopic dermatitis, and collection of blood samples for hematology, serum chemistry and pharmacokinetic (PK) analysis occurred consistent with standard testing protocols.
The primary effectiveness variable was treatment success. A treatment success was defined as a 2 unit or more reduction from baseline on the 10-unit owner-assessed pruritus Visual-Analog Scale (VAS) in at least 70% of the first 7 treatment days (i.e., in at least 5 of the first 7 treatment days). Dogs withdrawn from the study within the first 7 days of treatment due to a perceived lack of effectiveness were considered treatment failures.
Random effects were fit for site and site treatment with a variance component covariance structure and a compound symmetry covariance structure was fit for individual dogs.

## N#CCC1(n2cc(-c3ncnc4[nH]ccc34)cn2)CN(S(=O)(=O)C2CC2)C1 [2-(3-(4-(7H-pyrrolo[2,3-d]pyrimidin-4-yl)-1H-pyrazol-1-yl)-1-(cyclopropylsulfonyl)azetidin-3-yl)acetonitrile]
0.25-0.40 mg/kg
  Treatment success LSMean (response rate): 0.4640
0.40-0.60 mg/kg
  Treatment success LSMean (response rate): 0.5590
Highest dose group 0.6-0.8 mg/kg once daily, minimum effective dose = success in at least 50% of the dogs
  primary endpoint for treatment success: achieved the primary endpoint for treatment success
Low dose (0.24-0.4 mg/kg) once daily
  estimated marginal mean response rate compared with placebo rate: higher than the placebo rate
Medium dose (0.4-0.6 mg/kg) once daily
  estimated marginal mean response rate compared with placebo rate: higher than the placebo rate
Once daily 0.6-0.8 mg/kg, at day 28
  improvement in lesion scores: significant improvement in lesion scores
Once daily dosing with 0.6-0.8 mg/kg, from first dose
  improvements in pruritus: significant improvements in pruritus from first dose
